From patent US8404669B2, “Kinase modulating compounds and uses thereof for treatment of cancer” (University of Florida Research Foundation, Inc., priority 2007, dated 2013)
Entries after “also recorded” stand apart in the source; their conditions may differ. One block for each molecule: values may come before it. Ends that are not written are not given here.

How the values were obtained:
[1] = tested on: subcutaneous xenograft models of breast and pancreatic cancers; assay: Subcutaneous xenograft models in nude mice, tumor growth; type: in vivo; conditions: for anticancer effect on tumor growth in vivo: single agent, mouse xenograft
Source text: (§1) Furthermore, these compounds sensitized the cancer cells to chemotherapy. […] See, FIGS. 3-14.

cancer cells [2] = assay: Dual treatment of cancer cells with C4 and chemotherapeutic drugs; type: cell-based, human
Source text: FIG. 1.9. Dual treatment of cancer cells with C4 compound and chemotherapeutic drugs. […] Concentrations correspond to IC50 cell-specific concentration for all used drugs.

VEGFR-3 = molecular target: T1, VEGFR-3 (Homo sapiens, UniProt P35916); assay: VEGFR-3 dephosphorylation in cells; type: cell-based
T1 construct: expressed in transfected cells
T1 sequence (P35916 25-1363): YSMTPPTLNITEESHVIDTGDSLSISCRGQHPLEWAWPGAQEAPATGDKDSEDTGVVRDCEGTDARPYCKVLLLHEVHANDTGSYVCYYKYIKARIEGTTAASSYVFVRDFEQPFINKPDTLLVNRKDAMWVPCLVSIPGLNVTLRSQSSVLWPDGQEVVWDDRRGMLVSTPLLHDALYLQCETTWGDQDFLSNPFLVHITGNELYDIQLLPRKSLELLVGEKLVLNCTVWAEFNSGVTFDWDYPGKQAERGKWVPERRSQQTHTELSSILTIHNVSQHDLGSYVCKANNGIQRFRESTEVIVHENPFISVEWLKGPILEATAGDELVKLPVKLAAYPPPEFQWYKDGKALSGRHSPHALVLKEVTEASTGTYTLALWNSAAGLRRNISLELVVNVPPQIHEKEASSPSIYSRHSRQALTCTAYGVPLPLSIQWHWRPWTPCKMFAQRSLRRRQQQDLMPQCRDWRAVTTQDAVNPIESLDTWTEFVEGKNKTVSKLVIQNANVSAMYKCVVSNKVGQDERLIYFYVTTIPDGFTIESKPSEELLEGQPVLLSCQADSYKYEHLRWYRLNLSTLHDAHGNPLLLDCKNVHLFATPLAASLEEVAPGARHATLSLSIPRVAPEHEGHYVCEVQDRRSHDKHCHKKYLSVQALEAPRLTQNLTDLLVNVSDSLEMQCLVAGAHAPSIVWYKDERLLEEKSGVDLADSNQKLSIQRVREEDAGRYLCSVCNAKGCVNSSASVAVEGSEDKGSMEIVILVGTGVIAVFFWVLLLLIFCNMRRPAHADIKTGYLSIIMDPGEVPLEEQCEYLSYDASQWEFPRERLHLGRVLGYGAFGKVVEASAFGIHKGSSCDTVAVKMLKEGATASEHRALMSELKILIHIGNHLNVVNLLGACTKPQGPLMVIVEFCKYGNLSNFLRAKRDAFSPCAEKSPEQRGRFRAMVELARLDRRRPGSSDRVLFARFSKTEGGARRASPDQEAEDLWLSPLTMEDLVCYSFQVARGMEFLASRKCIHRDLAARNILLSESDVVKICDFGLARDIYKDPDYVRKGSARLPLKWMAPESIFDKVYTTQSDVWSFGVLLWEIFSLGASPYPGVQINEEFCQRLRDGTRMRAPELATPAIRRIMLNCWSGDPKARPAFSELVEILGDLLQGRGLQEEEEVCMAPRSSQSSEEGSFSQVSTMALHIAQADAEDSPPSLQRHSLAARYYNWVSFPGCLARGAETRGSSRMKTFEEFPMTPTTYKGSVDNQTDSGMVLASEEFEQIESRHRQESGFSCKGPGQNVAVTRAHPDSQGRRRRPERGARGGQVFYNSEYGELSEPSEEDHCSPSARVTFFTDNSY

cancer cells [3] = assay: Cell cycle and apoptosis of cancer cells; type: cell-based, human
Protocol: Cell-based assays. Selected small molecules are evaluated in cell-based proliferation and apoptosis assays in model system of BT474 and MCF7 breast cancer cells and normal MCF10 cells. Other cells lines relevant for study are MiaPaCa-2 and PANC-1 (pancreatic cancer), A375 (melanoma), A549 (lung cancer), HT29 and COLO5 (colon cancer), SAOS (osteosarcoma), HCT116 p53(-/-) and HCT116 p53(+/+) (colon cancer) and […] (melanoma). The multiplex approach to analyze more than one parameter from the same culture well is used. The CellTiter-Blue Cell Viability Assay (Promega). CellTiter-Blue Reagent is added directly to each well (20μ reagent to each 100μ of medium in 96-well format), the plates are incubated at 37° C., and the fluorescent signal is measured (560Ex/590Em). This test can be combined with additional assays. The caspase activity is measured in the same wells by adding 120μ of the Apo-ONE Homogeneous […]-3/7 Assay Reagent (Promega). Cells are incubated for an additional hour at ambient temperature prior to recording fluorescence (485Ex/527Em);

cancer cells [4] = assay: Motility and invasiveness of cancer cells; type: cell-based
[5] = tested on: MCF7 cells overexpressing wt VEGFR3; assay: Viability of stable clone overexpressing wt VEGFR3 in MCF7 cells; type: cell-based, human; conditions: 1 mM
[6] = molecular target: T2, FAK and VEGFR-3 interaction (Homo sapiens, UniProt Q05397); assay: FAK and VEGFR-3 interaction and colocalization (immunofluorescence confocal microscopy, FRET); type: cell-based; conditions: for colocalization of FAK and VEGFR-3 in the cells: confocal microscopy
T2 construct: endogenous in cells; BT474 for the FAK/VEGFR-3 staining
T2 sequence (Q05397 2-1052 limits assumed): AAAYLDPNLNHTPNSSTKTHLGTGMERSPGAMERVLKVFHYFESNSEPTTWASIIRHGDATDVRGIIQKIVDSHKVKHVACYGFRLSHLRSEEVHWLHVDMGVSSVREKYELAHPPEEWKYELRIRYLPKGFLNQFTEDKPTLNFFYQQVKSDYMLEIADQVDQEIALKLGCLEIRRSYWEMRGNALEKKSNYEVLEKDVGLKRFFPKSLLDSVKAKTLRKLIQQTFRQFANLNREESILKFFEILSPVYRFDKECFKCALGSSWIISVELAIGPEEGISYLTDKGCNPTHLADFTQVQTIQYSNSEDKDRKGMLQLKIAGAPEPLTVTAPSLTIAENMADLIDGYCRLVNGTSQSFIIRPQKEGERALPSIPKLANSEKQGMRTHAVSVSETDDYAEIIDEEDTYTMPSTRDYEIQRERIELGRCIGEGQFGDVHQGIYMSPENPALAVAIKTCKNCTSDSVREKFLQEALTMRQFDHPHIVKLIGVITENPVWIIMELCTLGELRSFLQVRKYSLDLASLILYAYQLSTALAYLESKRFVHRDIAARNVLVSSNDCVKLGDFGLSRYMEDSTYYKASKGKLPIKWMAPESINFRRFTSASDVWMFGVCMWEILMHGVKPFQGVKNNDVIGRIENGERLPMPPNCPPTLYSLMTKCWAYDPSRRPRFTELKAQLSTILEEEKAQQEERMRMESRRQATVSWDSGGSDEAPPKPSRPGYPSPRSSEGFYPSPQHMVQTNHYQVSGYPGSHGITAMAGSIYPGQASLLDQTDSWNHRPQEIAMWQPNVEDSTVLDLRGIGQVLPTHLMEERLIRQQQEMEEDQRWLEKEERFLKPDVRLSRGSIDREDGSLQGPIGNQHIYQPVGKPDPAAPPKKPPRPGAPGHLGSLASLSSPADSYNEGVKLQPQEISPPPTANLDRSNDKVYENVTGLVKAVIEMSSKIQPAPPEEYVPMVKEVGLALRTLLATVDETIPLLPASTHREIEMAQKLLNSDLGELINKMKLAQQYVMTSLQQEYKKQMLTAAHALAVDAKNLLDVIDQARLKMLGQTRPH
Protocol: as §1
(§2) FIG. 1.3. […] FAK and VEGFR-3 in BT474 cells were stained for FAK with a Texas Red-conjugated secondary antibody and VEGFR-3 with a Alexa Fluor 488-conjugated secondary antibody and then viewed with a Leica confocal microscope. After 24 hours of peptide-AV3 (black) treatment, staining was repeated, proliferation was measured by MTT assay, apoptosis was measured by Hoechst staining and TUNEL Assay. Control scrambled peptide-AV3S (white) was also used in all experiments. (FIG. 1.10, STEP 2A).

[7] = tested on: cancer cells, including breast, colon, pancreatic, melanoma, lung, osteosarcoma; assay: Cancer cell viability and proliferation assays (CellTiter 96, CellTiter-Blue, MTT); type: cell-based, human
Protocol: Cell-based assays. Selected small molecules are evaluated in cell-based proliferation and apoptosis assays in model system of BT474 and MCF7 breast cancer cells and normal MCF10 cells. Other cells lines relevant for study are MiaPaCa-2 and PANC-1 (pancreatic cancer), A375 (melanoma), A549 (lung cancer), HT29 and COLO5 (colon cancer), SAOS (osteosarcoma), HCT116 p53(−/−) and HCT116 p53(+/+) (colon cancer) and C8186 (melanoma). The multiplex approach to analyze more than one parameter from the same culture well is used.
CellTiter 96 Aqueous One Solution Cell Proliferation Assay (Promega). The assay is performed by adding a small amount of the One Solution Reagent directly to culture wells, incubating for 1-4 hours and then recording absorbance at 490 nm with a spectrophotometric plate reader. The quantity of formazan product as measured by the amount of 490 nm absorbance is directly proportional to the number of living cells in culture;
The CellTiter-Blue Cell Viability Assay (Promega). CellTiter-Blue Reagent is added directly to each well (20μ reagent to each 100μ of medium in 96-well format), the plates are incubated at 37° C., and the fluorescent signal is measured (560Ex/590Em). This test can be combined with additional assays. The caspase activity is measured in the same wells by adding 120μ of the Apo-ONE Homogeneous Caspace-3/7 Assay Reagent (Promega). […]

FAK = molecular target: T3, FAK (Homo sapiens, UniProt Q05397); assay: FAK dephosphorylation in cells; type: cell-based
T3 construct: specific displacement of FAK from the focal adhesions of the tumor cells; endogenous in cells; host or cells: tumor cells; BT474 named for the focal adhesion staining
T3 sequence (Q05397 whole entry): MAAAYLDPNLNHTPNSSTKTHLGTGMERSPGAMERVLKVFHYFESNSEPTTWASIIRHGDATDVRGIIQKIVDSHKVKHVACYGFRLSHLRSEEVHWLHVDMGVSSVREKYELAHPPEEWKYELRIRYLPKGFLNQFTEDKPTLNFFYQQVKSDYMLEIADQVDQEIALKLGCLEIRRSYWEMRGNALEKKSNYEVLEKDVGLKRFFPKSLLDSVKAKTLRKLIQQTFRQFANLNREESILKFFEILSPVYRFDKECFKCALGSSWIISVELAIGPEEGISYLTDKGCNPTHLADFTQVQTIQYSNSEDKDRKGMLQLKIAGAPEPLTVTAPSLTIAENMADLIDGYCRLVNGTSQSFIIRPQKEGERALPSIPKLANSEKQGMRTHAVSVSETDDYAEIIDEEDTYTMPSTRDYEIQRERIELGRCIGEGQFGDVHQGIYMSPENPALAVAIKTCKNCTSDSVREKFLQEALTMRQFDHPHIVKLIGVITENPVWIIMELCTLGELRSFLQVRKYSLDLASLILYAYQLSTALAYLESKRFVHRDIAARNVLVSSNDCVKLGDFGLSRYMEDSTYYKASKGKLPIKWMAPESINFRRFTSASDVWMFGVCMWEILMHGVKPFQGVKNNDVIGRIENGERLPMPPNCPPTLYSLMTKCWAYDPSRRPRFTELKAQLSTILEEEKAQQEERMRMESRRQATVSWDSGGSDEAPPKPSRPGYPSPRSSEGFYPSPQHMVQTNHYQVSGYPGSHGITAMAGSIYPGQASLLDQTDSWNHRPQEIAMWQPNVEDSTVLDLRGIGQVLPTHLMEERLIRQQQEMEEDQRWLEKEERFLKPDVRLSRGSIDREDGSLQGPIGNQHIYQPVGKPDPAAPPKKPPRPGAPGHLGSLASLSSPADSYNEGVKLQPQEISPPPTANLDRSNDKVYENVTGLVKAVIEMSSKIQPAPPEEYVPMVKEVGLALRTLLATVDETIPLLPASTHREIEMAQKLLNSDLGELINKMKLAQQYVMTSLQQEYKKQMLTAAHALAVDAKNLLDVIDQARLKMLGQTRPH
Protocol: (§3) Measurement of FAK-specific effect. The readout of a FAK-specific effect of selected in silico small molecules is specific displacement of FAK from the focal adhesions of the tumor cells. Tumor cells are doubly stained with FAK and paxillin using dual color techniques and extensive biochemical analyses of effects on FAK signaling are performed, essentially as previously published. See, Garces, C. A., et al., Vascular Endothelial Growth Factor Receptor-3 and Focal Adhesion Kinase Bind and Suppress Apoptosis in Breast Cancer Cells. Cancer Res % R 10.1158/0008-5472.CAN-05-1661, 2006. 66(3): p. 1446-1454; Xu, L.-h., et al., The focal adhesion kinase suppresses transformation-associated, anchorage-Independent apoptosis in human breast cancer cells. J. Biol. Chem., 2000. 275: p. 30597-30604; Kurenova, E., et al., Focal Adhesion Kinase Suppresses Apoptosis by Binding to the Death Domain of Receptor-Interacting Protein. Mol. Cell. Biol., 2004. 24(10): p. 4361-4371.

[8] = tested on: MCF7 control clone transfected with the vector pcDNA3; assay: Viability of control MCF7 clone transfected with vector pcDNA3; type: cell-based, human; conditions: 1 mM
PARP = PARP down-regulation; type: cell-based
Source text: As such, these compounds are useful as therapeutic agents.

breast cancer cell lines = assay: Peptide effect on proliferation (MTT), detachment and apoptosis (Hoechst, TUNEL) in breast cancer cell lines; type: cell-based, human; conditions: 24 hours
Protocol: as §2

[9] = molecular target: T4, FAK in focal adhesions of BT474 cells (Homo sapiens, UniProt Q05397); assay: Displacement of FAK from focal adhesions (dual colour staining, confocal microscopy); type: cell-based; conditions: 24 hours of peptide treatment
T4 construct: specific displacement of FAK from the focal adhesions of the tumor cells; endogenous in cells; host or cells: tumor cells; BT474 named for the focal adhesion staining
T4 sequence (Q05397 whole entry): as above
Protocol: as §3
as §2, with “Control scrambled peptide-AV3S (white) was also used in all experiments. (FIG. 1.10, STEP 2A).” left out

Molecule: CN(C)CCOC(c1ccccc1)c1ccccc1 [Benadryl, reference compound]
- anticancer effect on tumor growth in vivo [1]: no any anticancer properties

- dephosphorylation of VEGFR3 (VEGFR-3; treatment for 24 h with 10 mM compound): caused dephosphorylation of VEGFR3
- FAK and VEGFR-3 interaction [6]: disrupts their interaction
Molecule: CN(C)CCN(Cc1ccc(Cl)cc1)c1ccccn1 [Compound C4, N′-[(4-chlorophenyl)methyl]-N,N-dimethyl-N′-pyridin-2-yl-ethane-1,2-diamine]
- reduction of tumor growth in comparison with nontreated tumors ([1]; 60 mg/kg, daily intraperitoneal injections, nude mice): up to 75%
- tumor growth after treatment withdrawal ([1]; C4 combined with Gemcitabine, pancreatic tumor): prolonged cytostatic effect on pancreatic tumor growth after treatment withdrawal
- anticancer effect in combination with Gemcitabine ([1]; C4 combined with Gemcitabine, versus each drug separately): much stronger anticancer effect than each of the drugs separately
- tumor growth compared with doxorubicin ([1]; breast cancer): decreases tumor growth better than doxorubicin
- anticancer effect on tumor growth in vivo [1]: strong anticancer effect; also recorded: reduces tumor growth in vivo in mouse model of breast cancer and pancreatic cancer
- effect of dual treatment with doxorubicin (cancer cells [2]; C4 combined with doxorubicin, IC50 cell-specific concentrations): At least additive effect is very pronounced
- cell viability in combination with chemotherapy (sensitization) (cancer cells [2]; in combination with Doxorubicin and Gemcitabine, in vitro): improved effect on decrease of cells viability; also recorded: sensitizes pancreatic cancer and breast cancer cells to chemotherapy treatment in vitro
- VEGFR-3 phosphorylation (VEGFR-3): specifically dephosphorylates FAK and VEGFR-3
- cell cycle (cancer cells [3]): blockage at G1/S cell cycle transition
- apoptosis of cancer cells (cancer cells [3]; in vitro): apoptosis of cancer cells; also recorded: causes apoptosis in pancreatic and breast cancer cells in vitro
- motility and invasiveness of cancer cells (cancer cells [4]): reduces motility and invasiveness of cancer cells
- viability of VEGFR3 clone [5]: reproducible decrease in viability
- colocalization of FAK and VEGFR-3 in the cells [6]: decrease in their colocalization in the cells
- cell proliferation [7]: delay in cell proliferation
- viability of cancer cells ([7]; in vitro): decreases viability of many different types of cancer cells
- FAK phosphorylation (FAK): specifically dephosphorylates FAK and VEGFR-3
- viability of control clone [8]: resistant to this concentration of the drug

- phosphorylation of Y397 (FAK): cause de-phosphorylation of Y397
Molecule: COC(=O)Nc1nc2ccc(C(=O)C3CC3)cc2[nH]1 [Compound D4, methyl N-[5-(cyclopropanecarbonyl)-3H-benzoimidazol-2-yl]carbamate]
- PARP level (PARP): causes PARP down-regulation

- phosphorylation of Y397 (FAK): cause de-phosphorylation of Y397
Molecule: Cc1cc(C)nc(Nc2nc3cc([N+](=O)[O-])ccc3[nH]2)n1 [Compound D5, (4,6-Dimethyl-pyrimidin-2-yl)-(5-nitro-1H-benzoimidazol-2-yl)-amine]

- phosphorylation of Y397 (FAK): cause de-phosphorylation of Y397
Molecule: COc1ccc(NC(=O)Nc2cc(Cl)ccc2OC)c(Cl)c1 [Compound D6, 1-(2-chloro-4-methoxy-phenyl)-3-(5-chloro-2-methoxy-phenyl) urea]

Molecule: WHWRPWTPCKMF (also: TAT penetration sequence coupled for cell tests) [peptide-AV3]
- cell detachment in breast cancer cell lines (breast cancer cell lines): caused cell detachment
- cell detachment in breast cancer cell lines (breast cancer cell lines; listed as Peptide-AV3): increased detachment
- apoptosis in breast cancer cell lines (breast cancer cell lines; Hoechst staining and TUNEL): apoptosis
- proliferation of breast cancer cell lines (breast cancer cell lines; MTT): decreased proliferation
- colocalization of FAK and VEGFR-3 in the cells [6]: affected co-localization of FAK and VEGFR-3; also recorded: affected colocalization of FAK and VEGFR-3
- displacement of FAK from the focal adhesions [9]: caused specific displacement of FAK from the focal adhesions
- displacement of FAK from the focal adhesions ([9]; listed as Peptide-AV3): causes specific displacement of FAK from the focal adhesions
